Laboratory results as given in ChEMBL document CHEMBL3745645, “Synthesis, in vitro antitumor activity, dihydrofolate reductase inhibition, DNA intercalation and structure-activity relationship studies of 1,3,5-triazine analogues” (Bioorg Med Chem Lett, 2016).

Key:
[1] = Cytotoxicity against human Caki1 cells at 10 uM after 48 hrs by SRB assay; format: functional; settings: CAKI-1, 48 h, read-out: GI
[2] = Cytotoxicity against human RXF393 cells at 10 uM after 48 hrs by SRB assay; format: functional; settings: RXF 393, 48 h, read-out: GI
SN12C = experiment: Cytotoxicity against human SN12C cells at 10 uM after 48 hrs by SRB assay; format: functional; settings: read-out: GI
MCF7 = experiment: Cytotoxicity against human MCF7 cells at 10 uM after 48 hrs by SRB assay; format: functional; settings: MCF7, 48 h, read-out: GI
[3] = Cytotoxicity against human Hs 578T cells at 10 uM after 48 hrs by SRB assay; format: functional; settings: read-out: GI
T47D = experiment: Cytotoxicity against human T47D cells at 10 uM after 48 hrs by SRB assay; format: functional; settings: read-out: GI
MDA-MB-468 = experiment: Cytotoxicity against human MDA-MB-468 cells at 10 uM after 48 hrs by SRB assay; format: functional; settings: MDA-MB-468, 48 h, read-out: GI
CCRF-CEM [4] = experiment: Cytotoxicity against human CCRF-CEM cells after 48 hrs by SRB assay; format: functional
[5] = Cytotoxicity against human HL-60(TB) cells after 48 hrs by SRB assay; format: functional; settings: HL-60, 48 h, read-out: LC50 (the source's name)
K562 = experiment: Cytotoxicity against human K562 cells after 48 hrs by SRB assay; format: functional; settings: K562, 48 h
[6] = Cytotoxicity against human RPMI8226 cells after 48 hrs by SRB assay; format: functional; settings: RPMI-8226, 48 h, read-out: LC50 (the source's name)
SR [7] = experiment: Cytotoxicity against human SR cells after 48 hrs by SRB assay; format: functional
[8] = Cytotoxicity against human COLO205 cells after 48 hrs by SRB assay; format: functional; settings: COLO 205, 48 h, pooled result: one value given for 7 cell lines, strains, targets or settings
[9] = Cytotoxicity against human SF268 cells after 48 hrs by SRB assay; format: functional; settings: SF-268, 48 h, pooled result: one value given for 6 cell lines, strains, targets or settings
[10] = Cytotoxicity against human LOXIMVI cells after 48 hrs by SRB assay; format: functional; settings: LOX IMVI, pooled result: one value given for 9 cell lines, strains, targets or settings
[11] = Cytotoxicity against human IGROV1 cells after 48 hrs by SRB assay; format: functional; settings: IGROV-1, 48 h, pooled result: one value given for 7 cell lines, strains, targets or settings
786-0 = experiment: Cytotoxicity against human 786-0 cells after 48 hrs by SRB assay; format: functional; settings: 786-0, 48 h, pooled result: one value given for 8 cell lines, strains, targets or settings
[12] = Cytotoxicity against human PC3 cells after 48 hrs by SRB assay; format: functional; settings: PC-3, 48 h
Calf thymus DNA [13] = experiment: Binding affinity to calf thymus DNA by UV-vis spectrometric analysis; format: nucleic-acid assay; settings: Bos taurus
Calf thymus DNA [14] = experiment: Binding affinity to calf thymus DNA by fluorescence spectrophotometric analysis; format: nucleic-acid assay; settings: Bos taurus
Calf thymus DNA [15] = experiment: Binding affinity to calf thymus DNA assessed as melting temperature by spectrophotometric analysis (reference value: 60 degC); format: nucleic-acid assay; settings: Bos taurus
CCRF-CEM [16] = experiment: Cytotoxicity against human CCRF-CEM cells at 10 uM after 48 hrs by SRB assay; format: functional; settings: read-out: GI
[17] = Cytotoxicity against human MOLT4 cells at 10 uM after 48 hrs by SRB assay; format: functional; settings: MOLT-4, 48 h, read-out: GI
SR [18] = experiment: Cytotoxicity against human SR cells at 10 uM after 48 hrs by SRB assay; format: functional; settings: read-out: GI
[19] = Cytotoxicity against human HOP62 cells at 10 uM after 48 hrs by SRB assay; format: functional; settings: HOP-62, 48 h, read-out: GI
NCI-H226 = experiment: Cytotoxicity against human NCI-H226 cells at 10 uM after 48 hrs by SRB assay; format: functional; settings: NCI-H226, 48 h, read-out: GI
NCI-H322M = experiment: Cytotoxicity against human NCI-H322M cells at 10 uM after 48 hrs by SRB assay; format: functional; settings: read-out: GI
NCI-H522 = experiment: Cytotoxicity against human NCI-H522 cells at 10 uM after 48 hrs by SRB assay; format: functional; settings: NCI-H522, 48 h, read-out: GI
[20] = Cytotoxicity against human COLO205 cells at 10 uM after 48 hrs by SRB assay; format: functional; settings: COLO 205, 48 h, read-out: GI
[21] = Cytotoxicity against human HCT116 cells at 10 uM after 48 hrs by SRB assay; format: functional; settings: HCT-116, 48 h, read-out: GI
[22] = Cytotoxicity against human SW620 cells at 10 uM after 48 hrs by SRB assay; format: functional; settings: SW-620, 48 h, read-out: GI
[23] = Cytotoxicity against human SF268 cells at 10 uM after 48 hrs by SRB assay; format: functional; settings: SF-268, 48 h, read-out: GI
[24] = Cytotoxicity against human SF539 cells at 10 uM after 48 hrs by SRB assay; format: functional; settings: SF-539, 48 h, read-out: GI
U-251 = experiment: Cytotoxicity against human U251 cells at 10 uM after 48 hrs by SRB assay; format: functional; settings: U-251, 48 h, read-out: GI
Malme-3M = experiment: Cytotoxicity against human MALME-3M cells at 10 uM after 48 hrs by SRB assay; format: functional; settings: read-out: GI
SK-MEL-5 = experiment: Cytotoxicity against human SK-MEL-5 cells at 10 uM after 48 hrs by SRB assay; format: functional; settings: SK-MEL-5, 48 h, read-out: GI
[25] = Cytotoxicity against human OVCAR3 cells at 10 uM after 48 hrs by SRB assay; format: functional; settings: OVCAR-3, 48 h, read-out: GI
[26] = Cytotoxicity against human OVCAR8 cells at 10 uM after 48 hrs by SRB assay; format: functional; settings: OVCAR-8, 48 h, read-out: GI
A498 = experiment: Cytotoxicity against human A498 cells at 10 uM after 48 hrs by SRB assay; format: functional; settings: A498, 48 h, read-out: GI
ACHN = experiment: Cytotoxicity against human ACHN cells at 10 uM after 48 hrs by SRB assay; format: functional; settings: read-out: GI
[27] = Cytotoxicity against human OVCAR5 cells at 10 uM after 48 hrs by SRB assay; format: functional; settings: OVCAR-5, 48 h, read-out: GI
[28] = pooled result: one value given for 6 cell lines, strains, targets or settings
[29] = pooled result: one value given for 2 cell lines, strains, targets or settings

Cc1nc2ccc(Nc3nc(Cl)nc(Nc4ccc(F)cc4)n3)cc2n1Cc1ccccc1 gave an inhibition of growth at 10 µM [1] of 13.1%, an inhibition of growth at 10 µM [2] of 15.4% and an inhibition of growth at 10 µM (SN12C) of 53.3%. It also gave an inhibition of growth at 10 µM (MCF7) of 37.4%, an inhibition of growth at 10 µM [3] of 11.1% and an inhibition of growth at 10 µM (T47D) of 63.2%. It also gave an inhibition of growth at 10 µM (MDA-MB-468) of 30.3%, an LC50 (CCRF-CEM [4]) of over 100 µM and a GI50 (CCRF-CEM [4]; [28]) of 3.34 µM. The TGI (CCRF-CEM [4]; [28]) was 8.68 µM, the CC50 [5] was over 100 µM and the LC50 (K562) was over 100 µM. The CC50 [6] was over 100 µM, the LC50 (concentration killing 50% of cells) (SR [7]) was over 100 µM and the GI50 [8] was 4.91 µM. It also gave an LC50 [8] of 54.6 µM, a TGI [8] of 18.1 µM and a GI50 [9] of 6.39 µM. For the same compound, the LC50 (concentration killing 50% of cells) [9] was 43.5 µM, the TGI [9] was 24.3 µM and the GI50 [10] was 5.92 µM. It also gave an LC50 [10] of 53.9 µM, a TGI [10] of 18.4 µM and a GI50 [11] of 8.1 µM. It also gave an LC50 (concentration killing 50% of cells) [11] of 78.8 µM, a TGI [11] of 29.8 µM and a GI50 (786-0) of 7.49 µM. For the same compound, the LC50 (concentration killing 50% of cells) (786-0) was 55.5 µM, the TGI (786-0) was 30 µM and the LC50 [12] was 52.5 µM. It also gave a GI50 [12, 29] of 8.27 µM, a TGI [12, 29] of 27.7 µM and a Ka (Calf thymus DNA [13]) of 6.03 ×10⁴ /M. It also gave a Ka (Calf thymus DNA [14]) of 2.97 ×10⁴ /M, a Tm (Calf thymus DNA [15]) of 57 °C and an inhibition of growth at 10 µM (CCRF-CEM [16]) of 77.1%. The inhibition of growth at 10 µM [17] was 41.1%, the inhibition of growth at 10 µM (SR [18]) was 63.9% and the inhibition of growth at 10 µM [19] was 56.1%. The inhibition of growth at 10 µM (NCI-H226) was 26.8%, the inhibition of growth at 10 µM (NCI-H322M) was 11.9% and the inhibition of growth at 10 µM (NCI-H522) was 77.5%. For the same compound, the inhibition of growth at 10 µM [20] was 8.82%, the inhibition of growth at 10 µM [21] was 55.8% and the inhibition of growth at 10 µM [22] was 17.2%. The inhibition of growth at 10 µM [23] was 24.6%, the inhibition of growth at 10 µM [24] was 1.83% and the inhibition of growth at 10 µM (U-251) was 30.9%. It also gave an inhibition of growth at 10 µM (Malme-3M) of 11.5%, an inhibition of growth at 10 µM (SK-MEL-5) of 30.8% and an inhibition of growth at 10 µM [25] of 5.09%. For the same compound, the inhibition of growth at 10 µM [26] was 57.7%, the inhibition of growth at 10 µM (A498) was 22.2% and the inhibition of growth at 10 µM (ACHN) was 28.4%.
Cc1nc2ccc(Nc3nc(NCCN)nc(Nc4ccc(F)cc4)n3)cc2n1Cc1ccccc1 showed an inhibition of growth at 10 µM [1] of 1.79%, an inhibition of growth at 10 µM [2] of 25.8% and an inhibition of growth at 10 µM (SN12C) of 24.8%. It also gave an inhibition of growth at 10 µM (MCF7) of 39.1%, an inhibition of growth at 10 µM [3] of 20.5% and an inhibition of growth at 10 µM (T47D) of 23.2%. It also gave an inhibition of growth at 10 µM (MDA-MB-468) of 49.5%, an inhibition of growth at 10 µM (CCRF-CEM [16]) of 51.9% and an inhibition of growth at 10 µM [17] of 40.7%. For the same compound, the inhibition of growth at 10 µM (SR [18]) was 88.9%, the inhibition of growth at 10 µM [19] was 20.6% and the inhibition of growth at 10 µM (NCI-H226) was 13.8%. It also gave an inhibition of growth at 10 µM (NCI-H322M) of 7.76%, an inhibition of growth at 10 µM (NCI-H522) of 31% and an inhibition of growth at 10 µM [20] of 33.6%. The inhibition of growth at 10 µM [21] was 39.7%, the inhibition of growth at 10 µM [22] was 1.71% and the inhibition of growth at 10 µM [23] was 19.2%. It also gave an inhibition of growth at 10 µM [24] of 0.19%, an inhibition of growth at 10 µM (U-251) of 46.5% and an inhibition of growth at 10 µM (Malme-3M) of 26%. It also gave an inhibition of growth at 10 µM (SK-MEL-5) of 25.5%, an inhibition of growth at 10 µM [25] of 6.85% and an inhibition of growth at 10 µM [27] of 6.17%. For the same compound, the inhibition of growth at 10 µM [26] was 17.7%, the inhibition of growth at 10 µM (A498) was 25.5% and the inhibition of growth at 10 µM (ACHN) was 8.19%.
